# Reference: patent US20070281894A1, “PREPARATION AND UTILITY OF SUBSTITUTED ERYTHROMYCIN ANALOGS” (Auspex Pharmaceuticals, Inc., priority 2006, published 2007)
# Settings: topical or ocular, 5 microgram per mL
# Procedure: Liver microsomal stability assays were conducted at 1 mg per mL liver microsome protein with an NADPH-generating system in 2% NaHCO3 (2.2 mM NADPH, 25.6 mM glucose 6-phosphate, 6 units per mL glucose 6-phosphate dehydrogenase and 3.3 mM MgCl2). Test compounds were prepared as solutions in 20% acetonitrile-water and added to the assay mixture (final assay concentration 5 microgram per mL) and incubated at 37° C. Final concentration of acetonitrile in the assay should be <1%. Aliquots (50 μL) were taken out at times 0, 15, 30, 45, and 60 minutes, and diluted with ice cold acetonitrile (200 μL) to stop the reactions. Samples were centrifuged at 12000 RPM for 10 minutes to precipitate proteins. Supernatants were transferred to microcentrifuge tubes and stored for LC/MS/MS analysis of the degradation half-life of the test compounds.
row,increase in the degradation half-life as compared to the non-isotopically enriched drug (clarithromycin),SMILES
1,10-400%,"[2H]C([2H])([2H])O[C@]1(C)C[C@@H](C)C(=O)[C@H](C)[C@@H](O)[C@](C)(O)[C@@H](CC)OC(=O)[C@H](C)[C@@H](O[C@H]2C[C@@](C)(OC)[C@@H](O)[C@H](C)O2)[C@H](C)[C@H]1O[C@@H]1O[C@H](C)C[C@H](N(C)C)[C@H]1O [Example 8, d3-6-O-Methyl-Erythromycin A (d3-clarithromycin)]"
2,10-400%,"[2H]C([2H])([2H])O[C@]1(C)C[C@@H](C)C(=O)[C@H](C)[C@@H](O)[C@](C)(O)[C@@H](CC)OC(=O)[C@H](C)[C@@H](O[C@H]2C[C@@](C)(OC)[C@@H](O)[C@H](C)O2)[C@H](C)[C@H]1O[C@@H]1O[C@H](C)C[C@H](N(C)C([2H])([2H])[2H])[C@H]1O [Example 11, d6-6-O-Methyl-Erythromycin A (d6-clarithromycin)]"
3,10-400%,"[2H]C([2H])([2H])N(C)[C@H]1C[C@@H](C)O[C@@H](O[C@@H]2[C@@H](C)[C@H](O[C@H]3C[C@@](C)(OC)[C@@H](O)[C@H](C)O3)[C@@H](C)C(=O)O[C@H](CC)[C@@](C)(O)[C@H](O)[C@@H](C)C(=O)[C@H](C)C[C@@]2(C)OC)[C@@H]1O [Example 12, d3-6-O-Methyl-Erythromycin A (d3-clarithromycin)]"
